Where a name gives a salt, the structure may show the parent alone.
Tests used:
[1] = biological target: CSF-1R (FMS) (Homo sapiens (Human), UniProt P07333); conditions: representative value, substrate Tyr 01, ATP Bin 500 μM; read-out: IC50 (nM) of known inhibitor, CSF-1R (FMS); cited from earlier work
[2] = system: CD11b and CD24 positive cells; experiment: In vivo efficacy study: flow cytometry of blood leukocytes from mice bearing NZM12 human melanoma xenografts; set-up: species or system NIH-III female mice; conditions: dosed daily for 14 days

CSF-1R (FMS), sequence (P07333 20-972): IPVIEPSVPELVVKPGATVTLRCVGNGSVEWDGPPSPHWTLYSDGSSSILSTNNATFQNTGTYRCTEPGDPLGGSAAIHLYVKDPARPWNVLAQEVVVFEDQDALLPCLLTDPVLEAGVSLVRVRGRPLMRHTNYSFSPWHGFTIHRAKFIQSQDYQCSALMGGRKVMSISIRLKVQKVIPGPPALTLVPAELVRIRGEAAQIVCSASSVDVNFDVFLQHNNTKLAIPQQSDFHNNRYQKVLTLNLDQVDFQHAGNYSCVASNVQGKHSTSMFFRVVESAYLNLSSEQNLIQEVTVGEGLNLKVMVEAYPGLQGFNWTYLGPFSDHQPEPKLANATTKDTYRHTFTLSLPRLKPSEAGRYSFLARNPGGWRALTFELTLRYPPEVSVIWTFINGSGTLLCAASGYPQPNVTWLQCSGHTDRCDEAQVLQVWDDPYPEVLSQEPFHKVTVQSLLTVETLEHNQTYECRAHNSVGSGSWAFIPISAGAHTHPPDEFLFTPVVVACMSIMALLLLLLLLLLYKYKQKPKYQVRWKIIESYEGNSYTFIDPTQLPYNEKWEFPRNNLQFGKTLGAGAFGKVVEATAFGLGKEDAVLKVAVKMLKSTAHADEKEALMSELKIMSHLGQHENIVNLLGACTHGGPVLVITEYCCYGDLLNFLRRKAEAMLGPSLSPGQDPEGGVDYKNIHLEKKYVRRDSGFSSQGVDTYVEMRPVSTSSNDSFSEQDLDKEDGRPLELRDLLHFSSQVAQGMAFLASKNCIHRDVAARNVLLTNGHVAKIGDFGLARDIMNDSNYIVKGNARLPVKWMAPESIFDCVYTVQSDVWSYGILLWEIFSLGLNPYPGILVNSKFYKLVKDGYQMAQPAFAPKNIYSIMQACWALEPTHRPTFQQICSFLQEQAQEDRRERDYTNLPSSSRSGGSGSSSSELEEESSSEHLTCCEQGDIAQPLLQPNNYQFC

COc1cc2ncnc(Nc3cccc(Cl)c3)c2cc1OC [Tyrphostin AG1478]
IC50 [1]: 6480 nM

Cc1cc(OCCN(C)C)c2oc3cc(Oc4ccc(CCC(=O)NC5CCCC5)nc4)ccc3c(=O)c2c1 [dimethanesulfonate salt of compound 22, N-cyclopentyl-3-(5-((5-(2-(dimethylamino)ethoxy)-7-methyl-9-oxo-9H-xanthen-3-yl)-oxy)pyridin-2-yl)propanamide]
number of cells of myeloid lineage in the treated mice [2]: reduce the number of cells of myeloid lineage
levels of CD11b positive cells ([2]; blood leukocytes, versus PLX3397 and control (FIG. 1)): reduced the levels of CD11b and CD24 positive cells to a similar or greater extent compared with treatment with PLX3397
levels of CD24 positive cells ([2]; blood leukocytes, versus PLX3397 and control (FIG. 2)): reduced the levels of CD11b and CD24 positive cells to a similar or greater extent compared with treatment with PLX3397

FC(F)(F)c1ccc(CNc2ccc(Cc3c[nH]c4ncc(Cl)cc34)cn2)cn1 [PLX3397, Pexidartinib, reference compound]
number of cells of myeloid lineage in the treated mice [2]: reduce the number of cells of myeloid lineage
